Assay results as given in PubChem BioAssay (NCI).
“And” between values parts separate entries of the source, which are not always exact repeats. Equal entries are not always repeated.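 Five compound concentrations were applied to cells in 96-well plates for 48 hours; endpoints were derived by simple linear interpolation of the resulting dose-response curve. Abbreviation: GI50, concentration required for 50% inhibition of growth. Definition used: TGI = concentration required for complete inhibition of growth.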

Key:
Assay in all cases: DTP human tumour cell line panel, 48 h
COLO 205 colon = tested on: COLO 205 colon
HOP-62 NSCLC = tested on: HOP-62 NSCLC
KM12 colon = tested on: KM12 colon
OVCAR-8 ovarian = tested on: OVCAR-8 ovarian
RPMI-8226 leukemia = tested on: RPMI-8226 leukemia
SF-268 CNS = tested on: SF-268 CNS
SK-MEL-28 melanoma = tested on: SK-MEL-28 melanoma
SK-MEL-5 melanoma = tested on: SK-MEL-5 melanoma
CCRF-CEM leukemia = tested on: CCRF-CEM leukemia
HCC-2998 colon = tested on: HCC-2998 colon

Compound	GI50 (COLO 205 colon)	TGI (COLO 205 colon)	GI50 (HOP-62 NSCLC)	TGI (HOP-62 NSCLC)	GI50 (KM12 colon)	TGI (KM12 colon)	GI50 (OVCAR-8 ovarian)	TGI (OVCAR-8 ovarian)	GI50 (RPMI-8226 leukemia)	TGI (RPMI-8226 leukemia)	GI50 (SF-268 CNS)	TGI (SF-268 CNS)	GI50 (SK-MEL-28 melanoma)	TGI (SK-MEL-28 melanoma)	GI50 (SK-MEL-5 melanoma)	TGI (SK-MEL-5 melanoma)	TGI (CCRF-CEM leukemia)	GI50 (HCC-2998 colon)	TGI (HCC-2998 colon)	GI50 (CCRF-CEM leukemia)
Cc1ccc(S(=O)(=O)NCCNC2=CC(=O)c3nc4ccccc4c4ccnc2c34)cc1	14.3 µM	52.2 µM	20.6 µM	61.3 µM	16.1 µM	34.6 µM	19.5 µM	72.7 µM	10.5 µM	> 100 µM	19.1 µM	52.3 µM	26.7 µM	57.9 µM	14.6 µM	33.9 µM				
CCOC(=O)C1=C(c2ccccc2)N(C)c2ccccc2S1		> 100 µM		> 100 µM				> 100 µM		66.5 µM		97.3 µM		> 100 µM		30.3 µM	> 100 µM			
COc1ccc2c(c1)C(=O)c1c-2n(CCCN=[N+]=[N-])c(=O)c2cc(N(C)C)ccc12	> 100 µM	> 100 µM	10.3 µM	> 100 µM	3.66 µM	> 100 µM	84.6 µM	> 100 µM	> 100 µM	> 100 µM	22.3 µM	> 100 µM	> 100 µM	> 100 µM	23.8 µM	> 100 µM		> 100 µM	> 100 µM	
CCN(CC)CCNc1ccc([N+](=O)[O-])c2sc3ccccc3c(=O)c12	1.35 µM	3.58 µM	1.27 µM	3.64 µM	1.19 µM	2.55 µM	0.571 µM	2.42 µM	0.915 µM	2.84 µM	1.08 µM	2.5 µM	1.77 µM	3.3 µM	1.53 µM	2.9 µM	3.26 µM			0.732 µM
CN(C)c1ccc([O-])cc1.CN(C)c1ccc([O-])cc1.CN(C)c1ccc([O-])cc1.CN(C)c1ccc([O-])cc1.[Ti+4]	85.3 µM	> 100 µM	> 100 µM	> 100 µM	55 µM	> 100 µM	73.7 µM	> 100 µM	30.9 µM	> 100 µM	> 100 µM	> 100 µM	> 100 µM	> 100 µM	51.5 µM	> 100 µM	> 100 µM			43.7 µM
CCCCS(=O)CCC(N)C(=O)O (stereo not given)		> 100 µM		> 100 µM		> 100 µM		> 100 µM				> 100 µM		> 100 µM		> 100 µM	> 100 µM		> 100 µM	
COc1ccc2c(c1)/C(=C\c1cccnc1)C(=O)N2	26.2 µM	> 100 µM	23 µM	60.3 µM	19.7 µM	57.8 µM	11.8 µM	43.6 µM	18.6 µM	76.7 µM	12.9 µM	37 µM	23.4 µM	64.7 µM	16.5 µM	45.7 µM	> 100 µM			10.8 µM
COC[C@@H](N=CN1CCc2cc(OC)c(OC)cc2[C@@H]1C)C(C)(C)C		> 100 µM		> 100 µM		> 100 µM		> 100 µM		> 100 µM		> 100 µM		> 100 µM		> 100 µM	> 100 µM			
CC[C@@]1(O)C[C@H](OC2CC(N(C)C)C(OC3CC(O)C(OC4CCC(=O)C(C)O4)C(C)O3)C(C)O2)c2c(cc3c(c2O)C(=O)c2c(O)cccc2C3=O)[C@H]1C(=O)OC (stereo not given in full)				0.139 µM and 0.504 µM		0.519 µM and 0.56 µM		0.956 µM and 0.404 µM	0.00904 µM and 0.00447 µM	0.261 µM and 0.743 µM		0.371 µM and 2.79 µM		0.142 µM and 0.453 µM		0.0592 µM and 0.164 µM	0.7 µM and 2.69 µM		0.0746 µM and 0.351 µM	0.00779 µM and 0.0022 µM
C=CC1[C@H]2COC(C)(C)O[C@@H]2CC(=O)C1(C)C (stereo not given in full)		> 100 µM		> 100 µM		> 100 µM		> 100 µM				> 100 µM		> 100 µM					> 100 µM	
O=C([CH-]C(=O)c1ccccc1)c1ccccc1.O=C([CH-]C(=O)c1ccccc1)c1ccccc1.O=C([CH-]C(=O)c1ccccc1)c1ccccc1.[Nd+3].[OH3+]	10.6 µM	25.6 µM	2.62 µM	9.96 µM	6.02 µM	37.9 µM	3.3 µM	22.1 µM	3.47 µM	26.4 µM	4.16 µM	31.1 µM	7.74 µM	30.4 µM	2.79 µM	11.8 µM		4.73 µM	19 µM	
CC(=O)OCC1OC(n2c3c(c(-c4cccc5ccccc45)c(C#N)c2=S)CCCC3)C(OC(C)=O)C(OC(C)=O)C1OC(C)=O (stereo not given)		> 100 µM		> 100 µM		> 100 µM		> 100 µM				> 100 µM		> 100 µM		> 100 µM	> 100 µM		> 100 µM	
COc1cc2c(c(OC)c1OC)-c1ccc(N)c(=O)cc1[C@@H](NC(C)=O)CC2	0.012 µM	0.0386 µM	0.0426 µM	> 100 µM	< 0.01 µM	0.186 µM	0.0477 µM	> 100 µM	0.0456 µM	> 100 µM	0.0339 µM	> 100 µM	> 100 µM	> 100 µM			> 100 µM	0.0279 µM		< 0.0147 µM
CC(C)=CCC/C(C)=C/CC/C(C)=C/Cc1c(O)c2ccccc2oc1=O		> 100 µM		> 100 µM		> 100 µM		> 100 µM		> 100 µM		> 100 µM		> 100 µM			> 100 µM		> 100 µM	
CC1CC2CC(=O)CC3(C1)C2CCCN3CCCO (stereo not given)		> 100 µM		> 100 µM		> 100 µM		> 100 µM		> 100 µM		> 100 µM		> 100 µM		> 100 µM	> 100 µM			
COC(=O)C(C(=O)C(=O)Nc1ccc(C(F)(F)F)cc1[N+](=O)[O-])c1csc(-n2nc(-c3ccccc3)cc2-c2ccccc2)n1 (stereo not given)		> 100 µM		> 100 µM		> 100 µM		> 100 µM		> 100 µM							> 100 µM		> 100 µM	
CC1(C)C(=O)C(C)(C)C1=NN		> 100 µM		> 100 µM		> 100 µM		> 100 µM		> 100 µM		> 100 µM		> 100 µM		> 100 µM			> 100 µM	
